Results reported in the OPERA property sets (Mansouri et al. 2018).

With COCCC(=O)OC the boiling point was 143 °C.
For Nc1ccc([N+](=O)[O-])cc1Cl, the log10 Henry constant (atm·m³/mol) was -8.02, the melting point was 108 °C and the ready biodegradability was “not readily biodegradable”.
Compound COc1cccc(OC)c1OC has a boiling point of 235 °C and a melting point of 48.5 °C.
For O=C1[C@@H]2C[C@H](CN3CCCC[C@@H]23)[C@H]2CCCCN12, the melting point was 111 °C.
CCc1ccccc1-n1c(C)nc2ccccc2c1=O showed a melting point of 81 °C.
For Cc1ccc(-c2cccc(C)c2)cc1, the boiling point was 289 °C and the melting point was 14.5 °C.
Compound C=CCCCCCCCCCCCCC has a boiling point of 268 °C, a log10 vapour pressure (mmHg) of -2.34 and a melting point of -2.8 °C.
In the case of Cc1c(C2(c3cc(C(C)C)c(O)c(Br)c3C)OS(=O)(=O)c3ccccc32)cc(C(C)C)c(O)c1Br, the melting point is reported as 201 °C.
CCCCC(CC)COC(=O)/C=C/C(=O)OCC(CC)CCCC (stereo not given) gave a boiling point of 300 °C and a melting point of -10 °C.
CCC(C)(Cl)Cl showed a boiling point of 104 °C and a melting point of -74 °C.
With COc1cc(C)cc(C)c1 the boiling point was 194 °C.
NC(=O)c1ncccc1O showed a melting point of 195 °C.
CCC(c1ccccc1)c1c(O)c2ccccc2oc1=O (stereo not given) gave a melting point of 180 °C.
In the case of NCCCC[C@H](N)C(=O)O, the log10 vapour pressure (mmHg) is reported as -8.28.
O=C[C@H](O)[C@H](O)[C@H](O)CO gave a melting point of 98.5 °C.
With O=[N+]([O-])c1ccc(CO)cc1 the melting point was 96.5 °C.
Compound C=COCCCCCCCCCCCCCCCC has a melting point of 16 °C.
Work on Clc1cc(Cl)c(-c2ccc(Cl)c(Cl)c2)c(Cl)c1 yielded a log10 Henry constant (atm·m³/mol) of -4.13.
In the case of CCC(O)CO (stereo not given), the boiling point is reported as 194 °C, the log10 vapour pressure (mmHg) is reported as -1.3 and the ready biodegradability is reported as “readily biodegradable”.
In the case of CCCCCCCCCCCCCCCC(=O)Cl, the melting point is reported as 12 °C.
CC(C)(C)C(=O)C(Oc1ccc(Cl)cc1)n1cncn1 (stereo not given) gave a log10 Koc (L/kg) of 2.71, a log10 vapour pressure (mmHg) of -7.82 and a melting point of 82 °C.
With ClCOCCl the boiling point was 106 °C, the log10 vapour pressure (mmHg) was 1.47 and the melting point was -41.5 °C.
Work on [N-]=[N+]=CC(=O)OC[C@H](N)C(=O)O yielded a melting point of 154 °C.
With OC1c2ccccc2-c2ccccc21 the melting point was 154 °C.
COC(=O)C(F)(F)F showed a boiling point of 43.2 °C.
Compound BrCCCBr has a boiling point of 167 °C, a log10 Henry constant (atm·m³/mol) of -3.05 and a log10 vapour pressure (mmHg) of 0.134. For the same compound, the melting point was -34.2 °C and the ready biodegradability was “not readily biodegradable”.
Compound O=P(N1CC1)(N1CC1)N1CC1 has a melting point of 41 °C.
CC(Cl)C(Cl)CCl (stereo not given) gave a boiling point of 168 °C.
CCCCCC(=O)c1ccccc1 gave a boiling point of 265 °C and a melting point of 27 °C.
CCC(=O)c1ccccc1 gave a boiling point of 218 °C, a log10 vapour pressure (mmHg) of -0.77 and a melting point of 18.6 °C. For the same compound, the ready biodegradability was “readily biodegradable”.
OCc1ccc(F)cc1 showed a boiling point of 210 °C and a melting point of 23 °C.
Work on CC(=O)c1cccc(Cl)c1 yielded a boiling point of 244 °C.
With C1=COCC1 the boiling point was 54.5 °C and the log10 vapour pressure (mmHg) was 2.4.
C#CC(C)(C)NC(=O)c1ccc(OC)cc1 showed a log10 Koc (L/kg) of 1.83.
With CCCCCCCCCCCCCOP(Oc1ccccc1)Oc1ccccc1 the ready biodegradability was “not readily biodegradable”.
CCCCCCCCCCCCCCCC(=O)OC/C=C(C)/C=C/C=C(C)/C=C/C1=C(C)CCCC1(C)C showed a melting point of 28.5 °C.
Work on Oc1ccc(O)c(-c2ccccc2)c1 yielded a melting point of 102 °C.
COc1ccc(/C=C/C(=O)Nc2ccccc2C(=O)O)cc1OC showed a melting point of 212 °C.
In the case of C=C(Cl)CCl, the boiling point is reported as 94 °C and the log10 vapour pressure (mmHg) is reported as 1.79.
With NC(=S)Nc1ccccc1Cl the melting point was 146 °C.
With CC[SiH](CC)CC the boiling point was 109 °C.
Compound COc1ccccc1CO has a boiling point of 249 °C.
Compound C=Cc1ccccc1 has a boiling point of 145 °C, a log10 Henry constant (atm·m³/mol) of -2.56 and a log10 Koc (L/kg) of 2.96. For the same compound, the log10 vapour pressure (mmHg) was 0.806, the melting point was -31 °C and the ready biodegradability was “readily biodegradable”.
For CCOC(=O)C#N, the boiling point was 116 °C.
Work on O=C(O)C1CC1 yielded a boiling point of 183 °C, a log10 vapour pressure (mmHg) of -0.62 and a melting point of 18.5 °C.
With COP(=O)(OC)OC the boiling point was 197 °C, the log10 Henry constant (atm·m³/mol) was -8.14 and the log10 vapour pressure (mmHg) was -0.0706. The melting point was -46 °C and the ready biodegradability was “not readily biodegradable”.
Compound FC(Cl)(Cl)CCl has a boiling point of 88 °C and a melting point of -140 °C.
For C=CC=O, the boiling point was 52.6 °C, the log10 Henry constant (atm·m³/mol) was -3.91 and the log10 vapour pressure (mmHg) was 2.44. For the same compound, the melting point was -87.7 °C and the ready biodegradability was “not readily biodegradable”.
In the case of Clc1cc2c(cc1Cl)Oc1ccccc1O2, the log10 Koa is reported as 8.5, the log10 vapour pressure (mmHg) is reported as -5.53 and the melting point is reported as 163 °C.
In the case of CC(=O)Nc1ccccc1-c1ccccc1, the boiling point is reported as 355 °C and the melting point is reported as 121 °C.
For O=C(O)CCCCCCCCCCCCCCC(=O)O, the ready biodegradability was “readily biodegradable”.
In the case of Cc1ccc(C(=O)c2ccccc2)cc1C, the boiling point is reported as 341 °C and the melting point is reported as 47.5 °C.
Work on CCCC(C)(O)CCC yielded a boiling point of 161 °C and a melting point of -82 °C.
CCCCCCCCCCCCCCCC(=O)c1ccccc1 gave a melting point of 59 °C.
Nc1cccc2ccc(O)cc12 gave a melting point of 206 °C.
Compound CC1=C(/C=C/C(C)=C/C=C/C(C)=C/C(=O)O)C(C)(C)CCC1 has a melting point of 181 °C.
COc1ccc(C=O)c(C(=O)O)c1OC showed a melting point of 150 °C.
OCC1CCC(CO)O1 (stereo not given) showed a boiling point of 265 °C.
C=CCCCCCC=C gave a boiling point of 142 °C.
In the case of O=[N+]([O-])C(F)(F)F, the log10 vapour pressure (mmHg) is reported as 3.85.
Compound O=C(O)Cc1ccccc1CC(=O)O has a melting point of 151 °C.
In the case of SC(c1ccccc1)(c1ccccc1)c1ccccc1, the melting point is reported as 105 °C.
Work on CN[C@@H](C)Cc1ccccc1.Cl yielded a melting point of 172 °C.
Compound CCCCCCCC(=O)Oc1c(Br)cc(C#N)cc1Br has a log10 Koc (L/kg) of 4, a log10 vapour pressure (mmHg) of -5.32 and a melting point of 45.5 °C. The ready biodegradability was “readily biodegradable”.
N#CCCC#N gave a boiling point of 266 °C, a log10 vapour pressure (mmHg) of -2.11 and a melting point of 54.5 °C.
CCCCCCl gave a boiling point of 108 °C, a log10 Henry constant (atm·m³/mol) of -1.62 and a log10 vapour pressure (mmHg) of 1.52. For the same compound, the melting point was -99 °C.
